The record followed here is patent US9056865B2, “Pyridine-2-derivatives as smoothened receptor modulators” (Pfizer Inc., priority 2010, dated 2015).

By pIC50 is commonly meant the IC50 on a negative log10 scale, so that one unit is a factor of ten. The low end stands for a large IC50, the high end for a small IC50.

In one test the target is human Smo (Homo sapiens (Human), UniProt Q99835). Nature of the test: Smo radioligand competition binding assay. Conditions: for inhibition at 0.05 µM: 0.05 μM test compound, read-out: Smo % inh. @ 0.05 μM. The method, then: Smo Radioligand Competition Binding Assay
human Smo, sequence (Q99835 181-787): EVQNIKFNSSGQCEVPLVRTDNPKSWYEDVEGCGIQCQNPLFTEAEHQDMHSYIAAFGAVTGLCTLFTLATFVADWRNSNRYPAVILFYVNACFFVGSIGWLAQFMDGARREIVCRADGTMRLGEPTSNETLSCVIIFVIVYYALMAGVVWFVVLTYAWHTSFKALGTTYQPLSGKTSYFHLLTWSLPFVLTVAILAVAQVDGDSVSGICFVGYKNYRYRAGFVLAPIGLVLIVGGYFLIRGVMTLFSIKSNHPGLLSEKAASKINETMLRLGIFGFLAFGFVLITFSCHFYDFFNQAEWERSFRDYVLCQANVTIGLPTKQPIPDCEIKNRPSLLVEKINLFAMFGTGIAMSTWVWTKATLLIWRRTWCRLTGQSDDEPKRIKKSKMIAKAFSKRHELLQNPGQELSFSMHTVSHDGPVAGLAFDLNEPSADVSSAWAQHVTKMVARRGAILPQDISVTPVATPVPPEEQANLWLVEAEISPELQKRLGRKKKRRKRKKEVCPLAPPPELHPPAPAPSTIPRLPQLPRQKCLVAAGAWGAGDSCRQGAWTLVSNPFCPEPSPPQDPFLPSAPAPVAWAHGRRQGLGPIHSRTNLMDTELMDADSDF
Membranes were prepared from a stable cell line created in HEK293FlpIn-TetR cells (Invitrogen) using Flp recombinase-mediated insertion of the pSecTag-FRT/V5-His vector containing a cDNA encoding amino acids […] of human Smo fused to the murine Igk leader sequence to produce a cell surface expressed Smo 181-781 protein. Hygromycin-resistant clones were obtained and stained for LacZ expression (no expression indicates a correct knock-in of fusion cDNA). LacZ-negative cells were analyzed for binding tritiated Smo antagonists. For membrane preparation, the HEK293 cells expressing Smo 181-781 were grown to 90% confluence in nine to fifteen 245 mm×245 mm×22 mm dishes, washed with Dulbecco's PBS (15 mL per dish) and harvested via scraping in 10 mL of DPBS. The cells were collected and centrifuged at 1500 rpm (400×g) for 10 min at 4° C. The cell pellets were re-suspended in 40 mL of cold DPBS and washed by centrifugation at 2300 rpm (950×g max) for 10 minutes at 4° C. The supernatant was aspirated and the cell pellet was snap frozen in a methanol/dry ice bath and stored at −70° C. For membrane preparation, 15 mL of Membrane Preparation Buffer (50 mM Tris-HCl pH 7.5, 250 mM sucrose with Roche complete protease cocktail tablets) was added to the tube containing the cell pellet, then cells are rapidly thawed, and homogenized using an Ultra-Turrax T8 (IKA Labortechnik) set on “6” for 15 seconds for 5-6 times in icy water bath. This homogenate was diluted up to 50 mL using Membrane Preparation Buffer and centrifuged at 35,000 rpm in a Beckman Ti45 rotor (140,000×g) for 35 minutes at 4° C. followed by aspiration of the supernatant and re-suspension of the pellet in 5 mL of Assay Buffer (50 mM Tris-HCl pH 7.5, 100 mM NaCl, 25 mM MgCl2, 1 mM EDTA, and 0.1% protease free bovine serum albumin). The re-suspended pellet was then homogenized in a glass tissue grinder. The re-suspended membranes were aliquoted (0.5 mL aliquots), snap frozen and stored at −70° C. Total protein in the membrane preparation was determined using the Pierce BCA protein assay (Pierce Chemical).
For the binding competition assay, 100 μL of Assay Buffer was added to all the wells of a 96 well GF/B filter plate (Millipore MultiScreen-HTS-FB cat# MSFBN6B50) for 10 minutes to pre-wet the filter prior to evacuation of the buffer (8 inches Hg for 8 seconds). To the pre-wet wells is added: 20 μL of Assay Buffer, 10 μL diluted test agent, 20 μL of a tritiated Smo antagonist (15 nM stock solution), and 50 μL of membrane preparation (40 μg total protein per well). The plates are sealed and mixed at room temperature for 5 min, incubated at room temperature for 2 hours, then washed 5 times with 100 μL/each of wash buffer and vacuum dried for 8 seconds at 8 inches Hg. The plate is then dried for one hour in a 60° C. oven prior to the addition of 45 μL of Microscint 20 (Packard, #6013621) to each well and incubation at RT for 30 minutes to 1 hour. The plate is counted in a TopCount scintillation counter (Perkin Elmer).
Data analysis uses Excel for % Inhibition and Graphpad Prism for IC50 calculation. Total binding (TB, in the absence of inhibitors)=average of tritiated Smo antagonist 3 nM+Smo membrane (40 μg/wells (approx 5000-7000 CPM)). Non-specific binding (NSB)=average of tritiated Smo antagonist (3 nM)+cold Smo antagonist (30 μM)+Smo membrane (approx 600-1200 CPM). Specific binding (SB)=(total binding−non-specific binding). % Inhibition=[1−(compound Specific binding/control Specific binding)]×100%. IC50 is calculated by fitting the data to the four parameter sigmoidal dose-response curve (variable slope) Y=Bottom+(Top-Bottom)/(1+10^((LogEC50−X)*HillSlope)). X is the logarithm of the inhibitor concentration. Y is the response; Y starts at Bottom and goes to Top with a sigmoid shape.
A general note: Loss of bound radioactivity is the signal in a displacement assay; it reports binding, not function.

The subject of the next test is Gli-Luc/MEF cells. Nature of the test: Gli-Luc/MEF assay. Conditions: Mus musculus, MEF; Shh-stimulated luciferase, 48 hours. The format is cell-based, mouse. The method, then:
The Gli-Luc/MEF cells obtained from Gli-Luc transgenic mice contain a luciferase reporter gene under the control of the Gli response element. Luciferase activity stimulated with Sonic hedgehog ligand was inhibited by Smo inhibitors, and IC50 was subsequently calculated.
Plates were incubated at 37° C. and 5% CO2 overnight. On day two, cells were dosed with test compounds at a final concentration ranging from 3 μM to 50 μM at a 3-time series dilution. Immediately after dosing cells with compounds, recombinant mouse sonic hedgehog (Shh, R&D Systems 464-SH) was added to a final concentration of 2 μg/mL. The cells were incubated with compounds and Shh for 48 hours at 37° C. and 5% CO2. Luciferase assays were conducted on Day 4 using the Bright-Glo Luciferase assay system (Promega E2620) according to Promega's protocol. Briefly, Bright-Glo luciferase reagent was made up and 25 μL were added to each well of the 384-well plate containing media. Plates were kept at room temperature for 5 minutes, and then read on an Envision Luminescence plate reader (Perkin-Elmer). IC50 of the inhibition was calculated by using GraphPad Prism.

pIC50: −log10 of the molar value.

For `Cc1cccnc1-c1cc(N2CCC(C(=O)N[C@@H]3c4ccccc4C[C@@H]3O)CC2)ncc1Cl` [Example A-58, 1-(5′-chloro-3-methyl-2,4′-bipyridin-2′-yl)-N-[(1R,2S)-2-hydroxy-2,3-dihydro-1H-inden-1-yl]piperidine-4-carboxamide], at human Smo, the pIC50 was 6.74 and the inhibition at 0.05 µM is 70.3%. Also, the negative-log IC50 (pIC50) in the test with Gli-Luc/MEF cells is 7.41.

Take `Cc1cnc(-c2ccnc(N3CCN(C(=O)CCS(C)(=O)=O)CC3)c2)c(C)c1` [Example A-141, 1-[4-(3,5-dimethyl-2,4′-bipyridin-2′-yl)piperazin-1-yl]-3-(methylsulfonyl)propan-1-one]: at human Smo, the pIC50 was 7.94 and the inhibition at 0.05 µM was found to be 96.3%. Further, the pIC50 in the test with Gli-Luc/MEF cells is 8.07.

Take `Cc1cnc(-c2ccnc(N3CCN(C(=O)CN4C[C@@H](C)O[C@@H](C)C4)CC3)c2)c(C)c1` [Example A-156, 1-[4-(3,5-dimethyl-2,4′-bipyridin-2′-yl)piperazin-1-yl]-2-[(2R,6S)-2,6-dimethylmorpholin-4-yl]ethanone]: at human Smo, the pIC50 is 7.92 and the inhibition at 0.05 µM turned out to be 102%. Also, in the test with Gli-Luc/MEF cells, the pIC50 is 8.18.

Take `Cc1cc(F)cnc1-c1cc(N2CCC(NS(=O)(=O)CCO)CC2)ncc1Cl` [Example A-149, N-[1-(5′-chloro-5-fluoro-3-methyl-2,4′-bipyridin-2′-yl)piperidin-4-yl]-2-hydroxyethanesulfonamide]: at human Smo, the pIC50 was 7.68 and the inhibition at 0.05 µM came to 90.6%. Moreover, the pIC50 in the test on Gli-Luc/MEF cells was 8.00.

Consider `CC(=O)N1CCN(c2ncc(Cl)c(-c3ncccc3C)n2)CC1` [Example A-26, 2-(4-acetylpiperazin-1-yl)-5-chloro-4-(3-methylpyridin-2-yl)pyrimidine], for which, at human Smo, the pIC50 was 6.44 and the inhibition at 0.05 µM was determined as 69.9%. The pIC50 in the test with Gli-Luc/MEF cells was 6.72.

Consider `Cc1ccc(-c2cc(N3CCC(NS(C)(=O)=O)CC3)ncc2Cl)nc1` [Example A-9, N-[1-(5′-chloro-5-methyl-2,4′-bipyridin-2′-yl)piperidin-4-yl]methanesulfonamide], for which, on human Smo, the pIC50 is 7.12 and the inhibition at 0.05 µM is 65%. Also, the pIC50 in the test with Gli-Luc/MEF cells was 6.65.

With `COC(=O)N1CCN(c2ncc(Cl)c(-c3ncccc3C)n2)CC1` [Example A-36, methyl 4-[5-chloro-4-(3-methylpyridin-2-yl)pyrimidin-2-yl]piperazine-1-carboxylate], on human Smo, the pIC50 was 6.61 and the inhibition at 0.05 µM was found to be 72.7%. The pIC50 with Gli-Luc/MEF cells is 6.96.

In the case of `Cc1cccnc1-c1cc(N2CCC(C(=O)NC3CCOC3)CC2)ncc1Cl` (centres unmarked) [Example A-78, 1-(5′-chloro-3-methyl-2,4′-bipyridin-2′-yl)-N-(tetrahydrofuran-3-yl)piperidine-4-carboxamide], at human Smo, the pIC50 is 6.53 and the inhibition at 0.05 µM was 70.1%. This compound also gave a pIC50 in the test with Gli-Luc/MEF cells of 7.06.

In the case of `Cc1cc(F)cnc1-c1cc(N2CCC(NC(=O)CCS(C)(=O)=O)CC2)ncc1Cl` [Example A-144, N-[1-(5′-chloro-5-fluoro-3-methyl-2,4′-bipyridin-2′-yl)piperidin-4-yl]-3-(methylsulfonyl)propanamide], on human Smo, the pIC50 is 7.53 and the inhibition at 0.05 µM came to 91.3%. Further, in the test with Gli-Luc/MEF cells, the pIC50 was 7.78.

For `CCCNC(=O)COC1CCN(c2cc(-c3ncccc3C)c(Cl)cn2)CC1` [Example A-40, 2-{[1-(5′-chloro-3-methyl-2,4′-bipyridin-2′-yl)piperidin-4-yl]oxy}-N-propylacetamide], at human Smo, the pIC50 was 6.60 and the inhibition at 0.05 µM came out at 70.2%. The same compound gave a negative-log IC50 (pIC50) with Gli-Luc/MEF cells of 6.94.

For `CC(=O)N1CCN(c2cc(-c3ncc(C)cc3C)c(Cl)cn2)CC1` [Example A-100, 2′-(4-acetylpiperazin-1-yl)-5′-chloro-3,5-dimethyl-2,4′-bipyridine], at human Smo, the pIC50 is 6.95 and the inhibition at 0.05 µM worked out at 85.6%. In the test on Gli-Luc/MEF cells, this compound showed a pIC50 of 7.30.

On to `CC(=O)NC1CCN(c2cc(-c3ncccc3C)c(Cl)cn2)CC1` [Example A-35, N-[1-(5′-chloro-3-methyl-2,4′-bipyridin-2′-yl)piperidin-4-yl]acetamide], for which, at human Smo, the pIC50 was 6.70 and the inhibition at 0.05 µM was 70.6%. Moreover, the pIC50 in the test on Gli-Luc/MEF cells was 7.17.

On to `Cc1cnc(-c2cc(N3CCN(S(C)(=O)=O)CC3)ncc2Cl)c(C)c1` [Example A-104, 5′-chloro-3,5-dimethyl-2′-[4-(methylsulfonyl)piperazin-1-yl]-2,4′-bipyridine], for which the pIC50 on human Smo was 7.44; in the test with Gli-Luc/MEF cells, 7.90. Besides, the inhibition at 0.05 µM on human Smo was found to be 92.9%.

As to `Cc1cc(F)cnc1-c1cc(N2CCN(S(=O)(=O)CC(C)(C)O)CC2)ncc1Cl` [Example A-152, 1-{[4-(5′-chloro-5-fluoro-3-methyl-2,4′-bipyridin-2′-yl)piperazin-1-yl]sulfonyl}-2-methylpropan-2-ol], on human Smo, the inhibition at 0.05 µM is 95.9%. In addition, the pIC50 in the test on Gli-Luc/MEF cells is 7.95.

Regarding `Cc1cnc(-c2cc(N3CCC(S(C)(=O)=O)CC3)ncc2Cl)c(C)c1` [Example A-134, 5′-chloro-3,5-dimethyl-2′-[4-(methylsulfonyl)piperidin-1-yl]-2,4′-bipyridine], on human Smo, the pIC50 was 6.94 and the inhibition at 0.05 µM was determined as 80.8%. This compound also gave a pIC50 in the test with Gli-Luc/MEF cells of 7.42.

Regarding `CN(C)CC(=O)NC1CCN(c2ccc(Cl)c(-c3ccccn3)n2)CC1` [Example A-129, N-(1-(3-chloro-[2,2′-bipyridin]-6-yl)piperidin-4-yl)-2-(dimethylamino)acetamide], on human Smo, the pIC50 is 7.27 and the inhibition at 0.05 µM turned out to be 88.4%. In addition, in the test with Gli-Luc/MEF cells, the pIC50 was 8.09.

Consider `CC(C)(O)CC(=O)N1CCN(c2ccc(Cl)c(-c3ccccn3)n2)CC1` [Example A-90, 4-[4-(3-chloro-2,2′-bipyridin-6-yl)piperazin-1-yl]-2-methyl-4-oxobutan-2-ol], for which, on human Smo, the pIC50 was 6.95 and the inhibition at 0.05 µM came out at 82.5%. Moreover, the negative-log IC50 (pIC50) in the test with Gli-Luc/MEF cells was 7.17.

On to `Cc1cccnc1-c1cc(N2CCC(OCC(=O)NC(C)(C)C)CC2)ncc1Cl` [Example A-42, N-tert-butyl-2-{[1-(5′-chloro-3-methyl-2,4′-bipyridin-2′-yl)piperidin-4-yl]oxy}acetamide], for which, at human Smo, the pIC50 is 6.90 and the inhibition at 0.05 µM was found to be 80.5%. In the test with Gli-Luc/MEF cells, this compound gave a pIC50 of 7.43.

As to `Cc1cccnc1-c1nc(N2CCC(NS(C)(=O)=O)CC2)ncc1Cl` [Example A-34, N-{1-[5-chloro-4-(3-methylpyridin-2-yl)pyrimidin-2-yl]piperidin-4-yl}methanesulfonamide], on human Smo, the pIC50 is 7.61 and the inhibition at 0.05 µM was 94.8%. The compound further showed a pIC50 in the test on Gli-Luc/MEF cells of 7.68.
